Experimental data taken from US20040171598A1, “Use of steroids to treat persons suffering from ocular disorders” (priority 2003, published 2004).

What was measured:
IOP = test: Dexamethasone acetate induced IOP elevation in rabbits; format: in vivo, rabbit; conditions: for IOP: rabbits with weekly subTenon's dexamethasone acetate 1 mg/kg, versus vehicle
Method: Three groups of rabbits received weekly subTenon's injections of dexamethasone acetate (1 mg/kg) for 4 weeks. After two weeks, the IOPs of all three groups measured approximately 5 mm Hg. The rabbits were then treated with vehicle, 0.1% anecortave acetate, a 1% anecortave acetate by topical ocular dosing three times a day for the remaining 2 weeks. The IOP continued to increase in the vehicle treated group.

[1] = test system: retinal neovascularization; test: Rat pup model of retinopathy of prematurity; format: in vivo
Method: Anecortave acetate was tested for its angiostatic efficacy in a rat pup model of retinopathy of prematurity (Penn, at al., Investigative Ophthalmology & Visual Science, “The Effect of an Angiostatic Steroid on Neovascularization in a Rat Model of Retinopathy of Prematurity,” Vol. 42(1):283-290, January 2001). Newborn rat pups were placed in an atmosphere of varying oxygen content. The rats received a single intravitreal injection of vehicle or anecortave acetate (500 μg) upon return to room air (day 14) or 2 days later (day 16). There was significant retinal neovascularization in the rats that receive vehicle injections.

| Structure (SMILES) | IOP after two weeks of dexamethasone acetate (IOP; rabbits, weekly subTenon's injections 1 mg/kg, all three groups, before anecortave acetate or vehicle dosing) | IOP (IOP; 0.1% anecortave acetate topical ocular three times a day for 2 weeks) | IOP (IOP; 1% anecortave acetate topical ocular three times a day for 2 weeks) | inhibition of retinal neovascularization ([1]; single intravitreal injection 500 μg 2 days after return to room air (day 16)) [%] | inhibition of retinal neovascularization ([1]; single intravitreal injection 500 μg upon return to room air (day 14)) [%] |
| --- | --- | --- | --- | --- | --- |
| CC(=O)OCC(=O)[C@@]1(O)[C@H](C)C[C@H]2[C@@H]3CCC4=CC(=O)C=C[C@]4(C)[C@@]3(F)[C@@H](O)C[C@@]21C [dexamethasone acetate] | approximately 5 mm Hg | – | – | – | – |
| CC(=O)OCC(=O)[C@@]1(O)CC[C@H]2[C@@H]3CCC4=CC(=O)CC[C@]4(C)C3=CC[C@@]21C [anecortave acetate, 4,9(11)-pregnadien-17α,21-diol-3,20dione-21-acetate] | – | significantly lowered | significantly lowered | 50 | 66 |
